These results are taken from patent US11090246B2, “Powder hair dye composition” (KAO CORPORATION, priority 2017, dated 2021).

This series can be described thus: pKa and color of the azo dyes on dissociation of a proton. The series is classed as physicochemical. From the text:
Therefore, because the components (B) and (C) coexist with the component (A) in the powder hair dye composition of the present invention, a proton of the component (A) is dissociated and a color of the composition becomes close to one after hair dyeing.
Consider `CSc1nsc(/N=N/c2ccc(O)c(Cl)c2)n1` [(A-1), HC Blue 18], for which the “color assumed by dissociation of a proton” value was “red color”.
Next, `NS(=O)(=O)c1ccc2nsc(/N=N/c3ccc(O)c(Cl)c3)c2c1` [(A-2), HC Red 18]: “blue color”; `Cn1nccc1/N=N/c1ccc(O)c(Cl)c1` [(A-3), HC Yellow 16]: “yellow color”.
